Literature values, collected in patent US10526439B2, “High dielectric breakdown strength resins” (priority 2017, dated 2020).

Conditions: monomer property, Table IA; species and route not given

C=Cc1ccccc1 [STYRENE, styrene]
Toxicity LD50: >2000 mg/kg

C=Cc1ccc(C(C)(C)C)cc1 [Monomer 1, 4-tert butyl styrene]
Toxicity LD50: >2000 mg/kg
